Strand notation (5' to 3'): a small letter for the sugar, then the base; units joined by * are phosphorothioate-linked, units joined directly phosphodiester-linked; [ ] holds rarer units or linkages, { } end groups; capitals alone tell only the bases. [ms] = mesyl phosphoramidate linkage; e = 2'-O-(2-methoxyethyl) (MOE); k = constrained ethyl (cEt); [5mC] = 5-methylcytosine; d = 2'-deoxy (DNA)
Experiments:
human APOE RNA [1] = test: Activity in APOE C57BL/6NTac-Apoeem7250 knock-in mice, single ICV bolus, 4 weeks (Example 10); format: in vivo; conditions: single ICV bolus 300 μg
Protocol: Modified oligonucleotides described above were tested in the APOE C57BL/6NTac-Apoeem7250 knock-in mouse model described above.
APOE C57BL/6NTac-Apoeem7250 knock-in mice were divided into groups of 2-4 mice each. Each mouse received a single ICV bolus of 300 μg of modified oligonucleotide. A group of 3-4 mice received a single ICV bolus with PBS as a negative control.
Four weeks post treatment, mice were sacrificed and RNA was extracted from cortical brain tissue and spinal cord for quantitative real-time RT-PCR analysis of RNA expression of APOE using human primer probe set RTS3073 (described herein above). APOE RNA levels were normalized to mouse Ppia. Mouse Ppia was amplified using primer probe set m_cyclo24 (described herein above). Results are presented as percent human APOE RNA relative to the amount of human APOE RNA in PBS treated animals, (% control). Each experiment is identified in separate tables below.

human APOE RNA [2] = test: Dose-dependent inhibition of human APOE RNA in HepG2 cells, electroporation, 24 hours (Example 6); format: cell-based
Protocol: Modified oligonucleotides selected from the examples above were tested at various doses in HepG2.
HepG2 cells plated at a density of 50,000 cells per well were treated by electroporation with various concentrations of modified oligonucleotide as specified in the tables below. […] APOE RNA levels were measured using the human primer probe set RTS3073 (described herein above). APOE RNA levels were normalized to human GAPDH. Human GAPDH was amplified using human primer probe set RTS 104 (described herein above). Results are presented as percent APOE RNA, relative to the amount of APOE RNA in untreated control cells (% UTC). The half maximal inhibitory concentration (IC50) of each modified oligonucleotide was calculated in GraphPad Prism 10 (GraphPad Software, San Diego, CA) and is also presented in the tables below.

human APOE RNA [3] = test: Activity in APOE C57BL/6NTac-Apoeem7250 knock-in mice, single ICV bolus, 16 weeks (Example 12); format: in vivo; conditions: single ICV bolus 300 μg, 16 weeks post treatment, normalized to mouse Ppia
In short: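 Knock-in mice (3-4 per group) received one ICV bolus of 300 μg oligonucleotide, PBS as control. After 16 weeks, human APOE RNA in cortex and spinal cord measured by RT-qPCR, normalized to mouse Ppia, and reported as % of PBS control.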

human APOE RNA [4] = test: Dose-dependent inhibition of human APOE RNA in HepG2 cells, electroporation, 50,000 cells per well, RT-PCR normalized to GAPDH (Example 4, Tables 8-10); format: cell-based; conditions: HepG2, electroporation, 24-hour treatment
Protocol: Modified oligonucleotides selected from the examples above were tested at various doses in HepG2 cells. The modified oligonucleotides were tested in a series of experiments that had the same culture conditions. Each experiment is identified in separate tables below.
HepG2 cells plated at a density of 50,000 cells per well were treated by electroporation with various concentrations of modified oligonucleotide as specified in the tables below. […] APOE RNA levels were measured using the human primer probe set RTS3073 (forward sequence […], designated herein as SEQ ID NO: 7; reverse sequence CCATCAGCGCCCTCAGTT, designated herein as SEQ ID NO: 8; probe sequence […], designated herein as SEQ ID NO:9). APOE RNA levels were normalized to human GAPDH. […] Results are presented as percent APOE RNA, relative to the amount of APOE RNA in untreated control cells (UTC).

[5] = Cortex, C57BL/6NTac-Apoeem7250 knock-in mice, 4 weeks (Table 22)
[6] = Spinal Cord, C57BL/6NTac-Apoeem7250 knock-in mice, 4 weeks (Table 22)
[7] = cortex, 4 weeks post treatment, normalized to mouse Ppia
[8] = spinal cord, 4 weeks post treatment, normalized to mouse Ppia

Substance	APOE RNA (% control) Cortex (human APOE RNA [1]; [5]) [% control]	APOE RNA (% control) Spinal Cord (human APOE RNA [1]; [6]) [% control]	IC50 (human APOE RNA [2]) [nM]	APOE RNA (% UTC) (human APOE RNA [2]; 5 nM)	APOE RNA (% UTC) (human APOE RNA [2]; 13 nM)	APOE RNA (% UTC) (human APOE RNA [2]; 33 nM)	APOE RNA (% UTC) (human APOE RNA [2]; 82 nM)	APOE RNA (% UTC) (human APOE RNA [2]; 205 nM)	APOE RNA (% UTC) (human APOE RNA [2]; 512 nM)	APOE RNA (% UTC) (human APOE RNA [2]; 1,280 nM)	APOE RNA (% UTC) (human APOE RNA [2]; 3,200 nM)	APOE RNA (% UTC) (human APOE RNA [2]; 8,000 nM)	APOE RNA (% UTC) (human APOE RNA [2]; 20,000 nM)	APOE RNA (% control) Cortex (human APOE RNA [3]) [% control]	APOE RNA (% control) Spinal Cord (human APOE RNA [3]) [% control]	APOE RNA (% UTC) (human APOE RNA [4]; 5 nM)	APOE RNA (% UTC) (human APOE RNA [4]; 13 nM)	APOE RNA (% UTC) (human APOE RNA [4]; 33 nM)	APOE RNA (% UTC) (human APOE RNA [4]; 82 nM)	APOE RNA (% UTC) (human APOE RNA [4]; 205 nM)	also measured
1736528 (e[5mC]*eT*eT*eG*eG*eTdG[ms]dA[ms]dA[ms]dT*d[5mC]*dT*dT*dT*dA[ms]dT*kT*eA*eA*eA; antisense) [Compound 1736528]	57	56	1630	100	112	107	116	84	62	50	39	23	16	–	–	–	–	–	–	–	–
1736514 (e[5mC]*eTeT*eG*kG*kT*dG[ms]dA[ms]dA[ms]dT*d[5mC]*dT*dT*dT*dA[ms]dT*eT*eA*eA*eA; antisense) [Compound 1736514]	28	54	670	121	123	96	77	80	46	33	25	23	6	39	16	–	–	–	–	–	–
1736513 (e[5mC]*eTeT*eG*eG*kT*dG[ms]dA[ms]dA[ms]dT*d[5mC]*dT*dT*dT*dA[ms]dT*eT*eA*eA*eA; antisense) [Compound 1736513]	42	52	720	106	110	114	89	72	47	37	33	9	4	53	30	–	–	–	–	–	–
1736492 (e[5mC]*eTeT*eG*eG*eT*dG[ms]dA[ms]dA[ms]dT*d[5mC]*dT*dT*dT*dA[ms]dT*kT*eA*eA*eA; antisense) [Compound 1736492]	45	46	940	95	87	76	82	71	52	52	41	15	20	53	52	–	–	–	–	–	–
1736531 (e[5mC]*eT*eT*eG*eG*kTdG[ms]dA[ms]dA[ms]dT*d[5mC]*dT*dT*dT*dA[ms]dT*eT*eA*eA*eA; antisense) [Compound 1736531]	42	52	940	97	91	89	86	77	53	49	33	12	20	54	74	–	–	–	–	–	–
1736535 (e[5mC]*eT*eT*eG*eGkT*dG[ms]dA[ms]dA[ms]dT*d[5mC]*dT*dT*dT*dA[ms]dT*eT*eA*eA*eA; antisense) [Compound 1736535]	39	63	1660	90	96	99	93	67	69	53	24	51	13	47	26	–	–	–	–	–	–
1746796 (k[5mC]*kT*dT[ms]dG[ms]kG*dT[ms]dG[ms]dA[ms]dA[ms]dT*d[5mC]*dT*dT*dT*dA[ms]dT*kT*dA[ms]kA*kA; antisense) [Compound 1746796]	–	–	–	–	–	–	–	–	–	–	–	–	–	–	–	110	126	128	137	119	APOE RNA (% UTC) (human APOE RNA [4]; 512 nM): 89 % UTC; APOE RNA (% UTC) (human APOE RNA [4]; 1,280 nM): 71 % UTC; APOE RNA (% UTC) (human APOE RNA [4]; 3,200 nM): 40 % UTC; APOE RNA (% UTC) (human APOE RNA [4]; 8,000 nM): 28 % UTC; APOE RNA (% UTC) (human APOE RNA [4]; 20,000 nM): 20 % UTC; IC50 (human APOE RNA [4]): 3010 nM; APOE RNA (% control) Cortex (human APOE RNA [1]; [7]): 81 % control; APOE RNA (% control) Spinal Cord (human APOE RNA [1]; [8]): 68 % control
1746786 (k[5mC]*kT*dT[ms]dG[ms]kG*dT[ms]dG[ms]dA[ms]dA[ms]dT*d[5mC]*dT*dT*dT*dA[ms]dT*kT*kA*dA[ms]kA; antisense) [Compound 1746786]	–	–	–	–	–	–	–	–	–	–	–	–	–	–	–	85	93	90	75	87	APOE RNA (% UTC) (human APOE RNA [4]; 512 nM): 63 % UTC; APOE RNA (% UTC) (human APOE RNA [4]; 1,280 nM): 39 % UTC; APOE RNA (% UTC) (human APOE RNA [4]; 3,200 nM): 34 % UTC; APOE RNA (% UTC) (human APOE RNA [4]; 8,000 nM): 18 % UTC; APOE RNA (% UTC) (human APOE RNA [4]; 20,000 nM): 14 % UTC; IC50 (human APOE RNA [4]): 1010 nM; APOE RNA (% control) Cortex (human APOE RNA [1]; [7]): 79 % control; APOE RNA (% control) Spinal Cord (human APOE RNA [1]; [8]): 52 % control
1736493 (e[5mC]*eTeT*eG*eG*eT*dG[ms]dA[ms]dA[ms]dT*d[5mC]*dT*dT*dT*dA[ms]dT*kT*kA*eA*eA; antisense) [Compound 1736493]	47	51	140	73	85	67	58	50	35	25	8	6	8	57	51	–	–	–	–	–	–
1746787 (k[5mC]*kT*dT[ms]dG[ms]dG[ms]kT*dG[ms]dA[ms]dA[ms]dT*d[5mC]*dT*dT*dT*dA[ms]dT*kT*kA*dA[ms]kA; antisense) [Compound 1746787]	–	–	–	–	–	–	–	–	–	–	–	–	–	–	–	148	108	92	97	87	APOE RNA (% UTC) (human APOE RNA [4]; 512 nM): 68 % UTC; APOE RNA (% UTC) (human APOE RNA [4]; 1,280 nM): 56 % UTC; APOE RNA (% UTC) (human APOE RNA [4]; 3,200 nM): 37 % UTC; APOE RNA (% UTC) (human APOE RNA [4]; 8,000 nM): 11 % UTC; APOE RNA (% UTC) (human APOE RNA [4]; 20,000 nM): 14 % UTC; IC50 (human APOE RNA [4]): 1520 nM; APOE RNA (% control) Cortex (human APOE RNA [1]; [7]): 76 % control; APOE RNA (% control) Spinal Cord (human APOE RNA [1]; [8]): 71 % control
